{"source": "patent US20210183467A1", "about": "“SYSTEM AND METHOD FOR USING MICROBIOME TO DE-RISK DRUG DEVELOPMENT” (YALE UNIVERSITY, priority 2018, published 2021)", "key": {"[1]": {"system": "human gut microbial communities", "assay": "Bacterial conversion assay with fecal microbial communities", "assay_type": "in vitro ADME", "details": "human unfractionated fecal microbial communities", "experimental": "(§1) All handling of human materials is conducted with the permission of the Yale Human Investigation Committee. Samples are collected and stored as described in A. L. Goodman et al., Extensive personal human gut microbiota culture collections characterized and manipulated in gnotobiotic mice, Proceedings of the National Academy of Sciences,108, 6252-6257 (2011), the content of which is incorporated by reference herein. In brief, a single fecal sample is collected from each healthy human donor, stored on ice for less than 12 hours prior to transport into an anaerobic chamber (Coy Laboratory Products) and homogenization in pre-reduced GMM containing 20% glycerol. Aliquots of 0.5 mL volume are anaerobically prepared in 1.8 mL glass E-Z vials (Wheaton Industries) and stored at −80° C. Murine fecal samples are collected from individually caged animals (2 males and 2 females) and are stored at −80° C. without further processing.\n(§2) Frozen stocks are re-suspended in 4 mL pre-reduced GMM and incubated anaerobically at 37° C. for 14 h. Cultures are diluted (1:10) in 20% pre-reduced GMM containing BRV or SRV at 100 μM and further incubated at 25° C. anaerobically. […] Substrates and reaction product are extracted and quantified by LC-MS as described below."}, "[2]": {"system": "murine gut microbial communities", "assay": "Bacterial conversion assay with fecal microbial communities", "assay_type": "in vitro ADME", "details": "murine unfractionated fecal microbial communities", "experimental": "as §1, §2"}, "[3]": {"system": "Bacteroides ovatus", "assay_type": "in vitro ADME", "experimental": "Frozen stocks of bacteria (Table 4) are plated on BHI blood agar and incubated at 37° C. under anaerobic conditions. Single colonies are inoculated into 4 mL pre-reduced GMM and incubated anaerobically at 37° C. for 24 h (Akkermansia muciniphila for 48 hours). BRV conversion assays are performed with the resulting dense cultures, as described above for bacterial communities."}, "[4]": {"assay": "Oral BRV in conventional (CV) and germfree (GF) mice, drug and metabolite levels", "assay_type": "in vivo, C57BL/6 mice", "experimental": "Oral BRV was administered to conventional (CV) and germfree (GF) C57BL/6 mice, and BRV and BVU concentrations were measured over time along the length of the gastrointestinal tract as shown in FIG. 4C. Serum kinetics of BRV and BVU in conventional (CV) and germ-free (GF) mice were compared following oral BRV administration.\nAll experiments using mice are performed using protocols approved by the Yale University Institutional Animal Care and Use Committee. Germfree (GF) 8 to 12 week old C57BL/6J mice are maintained in flexible plastic gnotobiotic isolators with a 12-hour light/dark cycle and GF status monitored by PCR and culture-based methods. Conventional C57BL/6J mice (Jackson Laboratories) are purchased at the age of 6-7 weeks and kept in the lab for 2-3 weeks before experiments. All mice are provided a standard, autoclaved mouse chow (5013 LabDiet, Purina) ad libitum.\n(§3) Each drug treatment is performed using 20 treated and 5 to 6 untreated animals. Both genders are equally represented in each group and evenly distributed across the different time points for sample collection. Animals (n=5 per time point and group) are given 100 mg/kg body weight of BRV or SRV as suspensions in PBS (200 μL PBS for controls) by oral gavage. One blood sample is collected from each animal at an early time point (0.5, 1, 1.5, or 2 hours after drug administration) by submandibular bleeding. At 3, 5, 7, and 9 h, mice are sacrificed and tissue samples are collected into sample tubes and snap-frozen. Fecal samples are collected before euthanization and re-suspended in PBS (1 mL) through vigorous shaking. 20 μL are then plated on BHI blood plates and incubated aerobically and anaerobically at 37° C. to check GF, GN^WT, and GN^MUT animals for contamination. Monocolonized mice are also checked for contamination by PCR using primers 7 and 8.\n200 μL of 0.1 mm zirconia/silica beads (BioSpec Products) and 500 μL of organic solvent (acetonitrile:methanol, 1:1) supplemented with internal standard are added to 50-350 mg of pre-weighed solid material. Material is homogenized by mechanical disruption with a bead beater (BioSpec Products) set for 2 minutes on high setting at room temperature. After incubation for at least 1 h at −20° C., samples are centrifuged (3220 rcf, −9° C.) for 15 min. 10 μL of supernatant are diluted with 10 μL H2O for analysis by LC-MS.\nSamples for LS-MS analysis are prepared as described above. Chromatographic separation is performed on a C18 Kinetex Evo column (Phenomenex, 100 mm×2.1 mm, […]) using mobile phase A: H2O, 0.1% formic acid and B: methanol, 0.1% formic acid at 45° C. 5 μL of sample are injected at 100% A and 0.4 mL/min flow followed by a linear gradient to 95% B over 5.5 min and 0.4 mL/min flow leading to thymine, BVU, SRV, and BRV elution at 0.95, 2.0, 2.15, and 2.4 min, respectively. The internal standards caffeine and sulfamethoxazole elute at 1.9 and 2.1 min, respectively. The qTOF is operated in positive scanning mode (50-1000 m/z) and the following source parameters: VCap is 3500 V; nozzle voltage is 2000 V; gas temp is 225 C; drying gas 13 L/min; nebulizer is 20 psig; sheath gas temp is 225 C; and sheath gas flow is 12 L/min. Online mass calibration is performed using a second ionization source and a constant flow (5 μL/min) of reference solution (121.0509 and 922.0098 m/z). Compounds are identified based on the retention time of chemical standards and their accurate mass (tolerance 20 ppm)."}, "[5]": {"assay_type": "in vivo, C57BL/6J mice", "experimental": "Germfree mice were colonized with the wildtype and mutant strains. BRV was administered.\nIndividually caged GF C57BL/6J mice are colonized by oral gavage with 200 μL of an overnight GMM culture of either B. thetaiotaomicron wild type or bt4554 strains to generate GN^WT or GN^MUT mice, respectively. After 4 days, bacterial loads are determined by CFU plating on BHI blood agar prior to drug treatment.\nas §3"}, "[6]": {"details": "model parameter; Clinical Virology 3rd edition, 2009; cited from earlier work"}}, "data": [{"smiles": "O=c1[nH]c(=O)n([C@H]2C[C@H](O)[C@@H](CO)O2)cc1/C=C/Br", "note": "[BRV, Brivudine]", "values": [{"measurement": "conversion of BRV to BVU", "setting": "[1]", "value": "stoichiometric conversion to BVU"}, {"measurement": "conversion of BRV to BVU", "setting": "[2]", "value": "stoichiometric conversion to BVU"}, {"measurement": "capacity to convert BRV to BVU", "setting": "[3]", "value": "highest metabolic activity"}, {"measurement": "endogenous DPD substrates (thymine) in the liver", "setting": "[4]; BRV-treated CV mice", "value": "accumulate endogenous DPD substrates"}, {"measurement": "drug concentrations along the length of the gastrointestinal tract", "setting": "[4]; CV mice, oral BRV", "value": "progressively reduced"}, {"measurement": "BRV levels over time in the duodenum", "setting": "[4]; CV versus GF mice, oral BRV", "value": "similar"}, {"measurement": "serum BRV", "setting": "[4]; CV versus GF mice, oral BRV", "value": "without a corresponding decrease"}, {"measurement": "BRV levels further along the gastrointestinal tract and in feces", "setting": "[4]; GF mice versus CV, oral BRV", "value": "significantly higher"}, {"measurement": "absorption of BRV from the lower intestine", "setting": "[5]; GN^MUT mice excrete the drug in feces", "value": "poorly absorbed"}, {"measurement": "metabolism of cecal BRV by wildtype B. thetaiotaomicron", "setting": "[5]; GN^WT mice", "value": "completely metabolizes"}, {"measurement": "thymine in the liver", "setting": "[5]; GN^WT mice after BRV administration", "value": "thymine accumulation in the liver"}, {"measurement": "BRV serum kinetics", "setting": "[5]; GN^WT versus GN^MUT mice", "value": "indistinguishable"}, {"measurement": "F, bioavailability of the drug", "setting": "[6]", "value": 0.3, "unit": "fraction"}]}]}
